# Test results taken from patent US7253158B2, “Sulfonamides” (Hoffmann-La Roche Inc., priority 2004, dated 2007).
# Molecular target: T1, γ-secretase (Homo sapiens, UniProt P49768)
# T1 construct: uses a HEK293 membrane fraction as a source of γ-secretase; endogenous in cells; host or cells: HEK293 (microsomal membrane fraction, solubilised in 0.25% CHAPSO)
# Assay: in vitro γ-secretase assay (HEK293 membrane fraction, recombinant APP substrate, Abeta ELISA)
# Type: biochemical
# Settings: γ-secretase inhibition
# Source text: Description of γ-Secretase Assay
# The activity of test compounds can be evaluated in assays which measure the proteolytic cleavage of suitable substrates by γ-secretase activity. These can be cellular assays where e.g., a substrate of the γ-secretase is fused in its cytoplasmic domain to a transcription factor. Cells are transfected with this fusion gene and a reporter gene, e.g., firefly luciferase, which expression is enhanced by the transcription factor. Cleavage of the fused substrate by γ-secretase will lead to expression of the reporter gene which can be monitored in appropriate assays. The γ-secretase activity can also be determined in cell-free in vitro asays where e.g., a cell lysate containing the γ-secretase complex is incubated with a suitable APP-derived substrate which is cleaved to the Abeta peptides. The amount of produced peptides can be determined with specific ELISA assays. Cell lines of neuronal origin secrete Abeta peptides which can be measured with the specific ELISA assay. Treatment with compounds which inhibit γ-secretase leads to a reduction of secreted Abeta thus providing a measure of inhibition.
# The in vitro assay of γ-secretase activity uses a HEK293 membrane fraction as a source of γ-secretase and a recombinant APP substrate. Latter consist of the C-terminal 100 amino acids of human APP fused to a 6× Histidin tail for purification which is expressed in E. coli in a regulatable expression vector, e.g. pEt15. This recombinant protein corresponds to the truncated APP fragment which results after […] of the extracellular domain and which constitutes the γ-secretase substrate. […] Hek293 cells are mechanically disrupted and the microsomal fraction is isolated by differential centrifugation.
row,IC50 [nM],Structure (SMILES)
1,290,"COc1ccc(CN(C2CC(C(F)(F)F)CCNC2=O)S(=O)(=O)c2ccc(Cl)cc2)c(F)c1 (stereo not shown) [Example 198, 4-Chloro-N-(2-fluoro-4-methoxy-benzyl)-N-(2-oxo-5-trifluoromethyl-azepan-3-yl)-benzenesulfonamide]"
2,20,"O=C(O)c1ccc(CN(C2CC(C(F)(F)F)CCNC2=O)S(=O)(=O)c2ccc(Cl)cc2)c(F)c1 (stereo not shown) [Example 199, 4-{[(4-Chloro-benzenesulfonyl)-(2-oxo-5-trifluoromethyl-azepan-3-yl)-amino]-methyl}-3-fluoro-benzoic acid]"
3,20,"O=C(O)CCc1ccc(CN([C@@H]2CCCCNC2=O)S(=O)(=O)c2ccc(Cl)cc2)cc1 [Example 201, 3-(4-{[(4-Chloro-benzenesulfonyl)-((R)-2-oxo-azepan-3-yl)-amino]-methyl}-phenyl)-propionic acid]"
4,220,"O=C1NCCCC[C@H]1N(Cc1ccc(-c2ccno2)cc1)S(=O)(=O)c1ccc(Cl)cc1 [Example 208, 4-Chloro-N-(4-isoxazol-5-yl-benzyl)-N-((R)-2-oxo-azepan-3-yl)-benzenesulfonamide]"
5,50,"COc1ccc(CN([C@@H]2CCCCNC2=O)S(=O)(=O)c2ccc(Cl)cc2)c(F)c1F [Example 211, 4-Chloro-N-(2,3-difluoro-4-methoxy-benzyl)-N-((R)-2-oxo-azepan-3-yl)-benzenesulfonamide]"

# Same assay, conditions: γ-secretase inhibition, table head prints none
row,IC50 [nM],Structure (SMILES)
1,200,"COC(=O)c1ccc(C(C)N([C@@H]2CCCCNC2=O)S(=O)(=O)c2ccc(Cl)cc2)cc1 (stereo partly drawn) [Example 41, 4-{1-[(4-Chloro-benzenesulfonyl)-((R)-2-oxo-azepan-3-yl)-amino]-ethyl}-benzoic acid methyl ester]"
2,80,"O=C1NCCCC[C@H]1N(Cc1ccc(-c2ncn[nH]2)cc1F)S(=O)(=O)c1ccc(Cl)cc1 [Example 56, 4-Chloro-N-[2-fluoro-4-(2H-[1,2,4]triazol-3-yl)-benzyl]-N-((R)-2-oxo-azepan-3-yl)-benzenesulfonamide]"
3,120,"COc1ccc(CN([C@@H]2CCCCNC2=O)S(=O)(=O)c2ccc(Cl)cc2)c(F)c1 [Example 68, 4-Chloro-N-(2-fluoro-4-methoxy-benzyl)-N-((R)-2-oxo-azepan-3-yl)-benzenesulfonamide]"
4,260,"O=C(NC1CC1)c1ccc(CN([C@@H]2CCCCNC2=O)S(=O)(=O)c2ccc(C(F)(F)F)cc2)cc1 [Example 106, N-Cyclopropyl-4-{[((R)-2-oxo-azepan-3-yl)-(4-trifluoromethyl-benzenesulfonyl)-amino]-methyl}-benzamide]"
5,290,"O=C(NC1CC1)c1ccc(CN([C@@H]2CCCCNC2=O)S(=O)(=O)c2ccc(Br)cc2)cc1 [Example 107, N-Cyclopropyl-4-{[((R)-2-oxo-azepan-3-yl)-(4-bromo-benzenesulfonyl)-amino]-methyl}-benzamide]"
6,280,"CC1(C)CCNC(=O)C(N(Cc2ccc(C(=O)NC3CC3)cc2)S(=O)(=O)c2ccc(Cl)cc2)C1 (stereo not shown) [Example 109, 4-{[(4-Chloro-benzenesulfonyl)-(5,5-dimethyl-2-oxo-azepan-3-yl)-amino]-methyl}-N-cyclopropyl-benzamide]"
7,8,"COc1ccc(CN(C2CC(C(C)C)CCNC2=O)S(=O)(=O)c2ccc(Cl)cc2)cc1 (stereo not shown) [Example 111, 4-Chloro-N-(5-isopropyl-2-oxo-azepan-3-yl)-N-(4-methoxy-benzyl)-benzenesulfonamide]"
8,30,"O=C(NC1CC1)c1ccc(CN(C2CC(C(F)(F)F)CCNC2=O)S(=O)(=O)c2ccc(Cl)cc2)cc1 (stereo not shown) [Example 115, 4-{[(4-Chloro-benzenesulfonyl)-(2-oxo-5-trifluoromethyl-azepan-3-yl)-amino]-methyl}-N-cyclopropyl-benzamide]"
9,140,"COc1ccc(CN(C2CC(C(C)C)CCNC2=O)S(=O)(=O)c2ccc(Cl)cc2)c(F)c1 (stereo not shown) [Example 116, 4-Chloro-N-(2-fluoro-4-methoxy-benzyl)-N-(5-isopropyl-2-oxo-azepan-3-yl)-benzenesulfonamide]"
10,70,"CC1(C)CCNC(=O)C(N(Cc2ccc(C(=O)O)cc2)S(=O)(=O)c2ccc(Cl)cc2)C1 (stereo not shown) [Example 139, 4-{[(4-Chloro-benzenesulfonyl)-(5,5-dimethyl-2-oxo-azepan-3-yl)-amino]-methyl}-benzoic acid]"
11,230,"COc1ccc(CN([C@@H]2CCCCNC2=O)S(=O)(=O)c2ccc(C(F)(F)F)cc2)c(F)c1F [Example 166, N-(2,3-Difluoro-4-methoxy-benzyl)-N-((R)-2-oxo-azepan-3-yl)-4-trifluoromethyl-benzenesulfonamide]"
12,140,"Cc1nnc(-c2ccc(CN(C3CC(C(C)C)CCNC3=O)S(=O)(=O)c3ccc(Cl)cc3)cc2)o1 (stereo not shown) [Example 180, 4-Chloro-N-(5-isopropyl-2-oxo-azepan-3-yl)-N-[4-(5-methyl-[1,3,4]oxadiazol-2-yl)-benzyl]-benzenesulfonamide]"
13,270,"Cc1noc(-c2ccc(CN(C3CC(C(C)C)CCNC3=O)S(=O)(=O)c3ccc(Cl)cc3)cc2)n1 (stereo not shown) [Example 181, 4-Chloro-N-(5-isopropyl-2-oxo-azepan-3-yl)-N-[4-(3-methyl-[1,2,4]oxadiazol-5-yl)-benzyl]-benzenesulfonamide]"
14,10,"CC1(C)CCNC(=O)[C@H](N(Cc2ccc(C(=O)NC3CC3)cc2)S(=O)(=O)c2ccc(Cl)cc2)C1 [Example 183, 4-{[(4-Chloro-benzenesulfonyl)-((R)-5,5-dimethyl-2-oxo-azepan-3-yl)-amino]-methyl}-N-cyclopropyl-benzamide]"
15,10,"COC(=O)c1ccc(CN([C@@H]2CC(C)(C)CCNC2=O)S(=O)(=O)c2ccc(Cl)cc2)c(F)c1 [Example 185, 4-{[(4-Chloro-benzenesulfonyl)-((R)-5,5-dimethyl-2-oxo-azepan-3-yl)-amino]-methyl}-3-fluoro-benzoic acid methyl ester]"
16,130,"COC(=O)CCc1ccc(CN([C@@H]2CC(C)(C)CCNC2=O)S(=O)(=O)c2ccc(Cl)cc2)cc1 [Example 186, 3-(4-{[(4-Chloro-benzenesulfonyl)-((R)-5,5-dimethyl-2-oxo-azepan-3-yl)-amino]-methyl}-phenyl)-propionic acid methyl ester]"
17,10,"CC1(C)CCNC(=O)[C@H](N(Cc2ccc(CCC(=O)O)cc2)S(=O)(=O)c2ccc(Cl)cc2)C1 [Example 187, 3-(4-{[(4-Chloro-benzenesulfonyl)-((R)-5,5-dimethyl-2-oxo-azepan-3-yl)-amino]-methyl}-phenyl)-propionic acid]"
18,30,"CC1(C)CCNC(=O)[C@H](N(Cc2ccc(C(=O)O)cc2F)S(=O)(=O)c2ccc(Cl)cc2)C1 [Example 188, 4-{[(4-Chloro-benzenesulfonyl)-((R)-5,5-dimethyl-2-oxo-azepan-3-yl)-amino]-methyl}-3-fluoro-benzoic acid]"
19,20,"CN(C)NC(=O)c1ccc(CN([C@@H]2CC(C)(C)CCNC2=O)S(=O)(=O)c2ccc(Cl)cc2)c(F)c1 [Example 189, 4-Chloro-N-[4-(N′,N′-dimethyl-hydrazinocarbonyl)-2-fluoro-benzyl]-N-((R)-5,5-dimethyl-2-oxo-azepan-3-yl)-benzenesulfonamide]"
20,60,"CC1(C)CCNC(=O)[C@H](N(Cc2ccc(-c3ccno3)cc2)S(=O)(=O)c2ccc(Cl)cc2)C1 [Example 191, 4-Chloro-N-((R)-5,5-dimethyl-2-oxo-azepan-3-yl)-N-(4-isoxazol-5-yl-benzyl)-benzenesulfonamide]"
21,40,"COc1ccc(CN([C@@H]2CC(C)(C)CCNC2=O)S(=O)(=O)c2ccc(Cl)cc2)c(F)c1 [Example 192, 4-Chloro-N-((R)-5,5-dimethyl-2-oxo-azepan-3-yl)-N-(2-fluoro-4-methoxy-benzyl)-benzenesulfonamide]"
22,20,"CC1(C)CCNC(=O)[C@H](N(Cc2ccc(CO)cc2F)S(=O)(=O)c2ccc(Cl)cc2)C1 [Example 193, 4-Chloro-N-((R)-5,5-dimethyl-2-oxo-azepan-3-yl)-N-(2-fluoro-4-hydroxymethyl-benzyl)-benzenesulfonamide]"
23,130,"O=C(O)CCc1ccc(CN(C2CC(C(F)(F)F)CCNC2=O)S(=O)(=O)c2ccc(Cl)cc2)cc1 (stereo not shown) [Example 194, 3-(4-{[(4-Chloro-benzenesulfonyl)-(2-oxo-5-trifluoromethyl-azepan-3-yl)-amino]-methyl}-phenyl)-propionic acid]"
24,30,"O=C(O)c1ccc(CN(C2CC(C(F)(F)F)CCNC2=O)S(=O)(=O)c2ccc(Cl)cc2)cc1 (stereo not shown) [Example 195, 4-{[(4-Chloro-benzenesulfonyl)-(2-oxo-5-trifluoromethyl-azepan-3-yl)-amino]-methyl}-benzoic acid]"
25,190,"CN(C)NC(=O)c1ccc(CN(C2CC(C(F)(F)F)CCNC2=O)S(=O)(=O)c2ccc(Cl)cc2)cc1 (stereo not shown) [Example 196, 4-Chloro-N-[4-(N′,N′-dimethyl-hydrazinocarbonyl)-benzyl]-N-(2-oxo-5-trifluoromethyl-azepan-3-yl)-benzenesulfonamide]"
26,20,"COC(=O)c1ccc(CN(C2CC(C(F)(F)F)CCNC2=O)S(=O)(=O)c2ccc(Cl)cc2)c(F)c1 (stereo not shown) [Example 197, 4-{[(4-Chloro-benzenesulfonyl)-(2-oxo-5-trifluoromethyl-azepan-3-yl)-amino]-methyl}-3-fluoro-benzoic acid methyl ester]"
